Test results published in publication PMC8212708 (Clinical and Translational Science, 2021).

Target: T1, human glucose transporter-1 (hGLUT-1) (Homo sapiens, UniProt P11166)
T1 sequence (P11166 1-492): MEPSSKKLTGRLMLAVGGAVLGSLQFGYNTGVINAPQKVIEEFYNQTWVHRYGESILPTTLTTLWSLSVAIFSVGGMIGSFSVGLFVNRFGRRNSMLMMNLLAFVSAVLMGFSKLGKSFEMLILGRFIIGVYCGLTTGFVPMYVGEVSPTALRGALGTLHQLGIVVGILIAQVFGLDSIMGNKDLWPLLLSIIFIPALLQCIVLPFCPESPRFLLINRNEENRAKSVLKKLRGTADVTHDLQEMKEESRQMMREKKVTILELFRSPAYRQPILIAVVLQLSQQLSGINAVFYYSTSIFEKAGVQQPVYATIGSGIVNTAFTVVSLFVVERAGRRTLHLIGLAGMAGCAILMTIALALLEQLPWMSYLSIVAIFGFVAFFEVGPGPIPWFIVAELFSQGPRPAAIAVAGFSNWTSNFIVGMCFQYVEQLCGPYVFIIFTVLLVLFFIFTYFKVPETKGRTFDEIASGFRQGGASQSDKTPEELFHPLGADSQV
Assay: inhibition of [3H]2-DG
Assay type: cell-based
Conditions: FaDu, read-out: % inhibition at 25 μM

Row | inhibition at 25 µM [%] | SMILES
1 | > 50 | CC(C)c1cc(-c2n[nH]c(=O)n2-c2ccc3c(ccn3C)c2)c(O)cc1O [Ganetespib]
2 | > 50 | O=c1c(-c2ccc(O)cc2)coc2cc(O)cc(O)c12 [genistein]
3 | 80 to 90 | C#Cc1cccc(Nc2ncnc3cc(OC)c(OCCCCCCC(=O)NO)cc23)c1 [CUDC-101]
